Experimental data published in PMC6225212, “Synthesis and Pharmacological Evaluation of Novel Silodosin-Based Arylsulfonamide Derivatives as α1A/α1D-Adrenergic Receptor Antagonist with Potential Uroselective Profile” (Molecules : A Journal of Synthetic Chemistry and Natural …, 2018).

Tests used:
[1] = target: T1, α1A-ARs (Homo sapiens, UniProt P35348); assay: Intrinsic activity at α1A-ARs, β-lactamase reporter gene, FRET substrate; type: cell-based; design: key to α1A Profile: ANT—antagonist; AGO—agonist; conditions: for α1A Profile: functional profile; for IC50: antagonist mode, three independent experiments
T1 sequence (P35348 1-466): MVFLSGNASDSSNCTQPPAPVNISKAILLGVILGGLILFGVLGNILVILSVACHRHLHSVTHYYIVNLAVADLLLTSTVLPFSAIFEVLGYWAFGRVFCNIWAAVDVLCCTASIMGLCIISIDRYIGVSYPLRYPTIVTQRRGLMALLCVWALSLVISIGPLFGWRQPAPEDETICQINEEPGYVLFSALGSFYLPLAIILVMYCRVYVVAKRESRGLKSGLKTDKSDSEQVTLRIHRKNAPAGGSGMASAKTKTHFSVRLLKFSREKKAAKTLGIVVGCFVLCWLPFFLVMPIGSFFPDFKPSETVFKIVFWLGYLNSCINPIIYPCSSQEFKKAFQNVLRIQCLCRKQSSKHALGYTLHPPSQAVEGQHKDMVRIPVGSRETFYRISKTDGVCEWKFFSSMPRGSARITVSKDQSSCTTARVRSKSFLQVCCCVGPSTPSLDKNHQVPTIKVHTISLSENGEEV
Method: The intrinsic activity at α1A-ARs of the selected compounds was assessed by fluorescence detection (Invitrogen, Thermo Fisher Scientific, Carlsbad, CA, USA) of β-lactamase reporter genes using a FRET-enabled substrate. […] Intrinsic activity assay was performed according to the manufacturer of the assay kit (Invitrogen, Thermo Fisher Scientific corporation, Carlsbad, CA, USA). The cells were harvested and suspended in Assay Medium to a density of 312,500 cells/mL. Of the cell suspension, 32 µL per well was added to the Test Compound wells, the Unstimulated Control wells, and Stimulated Control wells and incubated per 16–24 h. […] Then, both the agonist and the antagonist plate were incubated in a humidified 37 °C/5% CO2 incubator for 5 h. After the incubation 8 µL of LiveBLAzer™-FRET B/G Substrate Mixture (CCF4-AM, Thermo Fisher Scientific corporation) was loaded cells in the absence of direct strong lighting, covered, and incubated at room temperature for 2 h.

[2] = target: T2, α1B-ARs (Homo sapiens, UniProt P35368); assay: Intrinsic activity at α1B-ARs, aequorin calcium mobilization luminescence; type: cell-based; design: key to α1B Profile: ANT—antagonist; AGO—agonist; conditions: for IC50: antagonist mode, three independent experiments; for α1B Profile: functional profile
T2 sequence (P35368 1-520): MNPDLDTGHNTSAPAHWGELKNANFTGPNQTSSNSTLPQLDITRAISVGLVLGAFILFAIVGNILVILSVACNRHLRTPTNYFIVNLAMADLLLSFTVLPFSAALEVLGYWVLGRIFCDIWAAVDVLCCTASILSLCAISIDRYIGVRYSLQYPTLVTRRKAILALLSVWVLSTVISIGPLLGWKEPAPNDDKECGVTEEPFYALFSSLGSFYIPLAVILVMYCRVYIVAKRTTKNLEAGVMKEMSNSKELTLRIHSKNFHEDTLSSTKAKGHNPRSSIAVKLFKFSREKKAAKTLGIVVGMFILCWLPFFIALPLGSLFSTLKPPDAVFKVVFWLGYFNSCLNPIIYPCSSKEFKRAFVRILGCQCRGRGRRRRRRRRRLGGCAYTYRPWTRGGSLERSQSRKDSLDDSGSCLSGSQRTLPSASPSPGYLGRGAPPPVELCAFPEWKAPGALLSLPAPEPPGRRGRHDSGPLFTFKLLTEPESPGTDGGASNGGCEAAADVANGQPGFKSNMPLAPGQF
Method: The intrinsic activity at α1A-ARs of the selected compounds was assessed by fluorescence detection (Invitrogen, Thermo Fisher Scientific, Carlsbad, CA, USA) of β-lactamase reporter genes using a FRET-enabled substrate. The intrinsic activity at α1B-ARs and α1D-ARs was determined by luminescence detection (PerkinElmer, Zaventem, Belgium) of calcium mobilization using the recombinant-expressed jellyfish photoprotein (Aequorin).
Intrinsic activity assay to α1B- and α1D-ARs was performed according to the manufacturer of the ready-to-use cells with stable expression of the α1B-adrenoreceptors and α1D-adrenoreceptors, respectively (PerkinElmer, Zaventem, Belgium). For measurement, cells (frozen, ready to use) were thawed and resuspended in 10 mL of assay buffer containing 5 µM coelenterazine h. This cells suspension was put in a 10 mL Falcon tube, fixed onto a rotating heel, and incubated for overnight at rt in the dark (8 rpm; 45° angle). Cells were diluted with Assay Buffer to 5000 cells/20 µL. Agonistic ligands 2 × (50 µL/well), diluted in Assay Buffer, were prepared in ½ white polystyrene area plates, and the cell suspension was dispensed in 50 µL volume on the ligands using the injector. The light emitted was recorded for 20 s. Cells with antagonist were incubated for 15 min at room temperature. Thereafter, 50 µL of agonist (3 × EC80 final concentration) was injected into the mix of cells and antagonist and the light emitted was recorded for 20 s.

[3] = target: α2-ARs; assay: Radioligand binding, displacement of [3H]-Clonidine from α2-ARs on rat cerebral cortex; conditions: ± SEM, two independent experiments
Method: The pharmacological profile of the new compounds was assessed in radioligand-binding assays as the ability to displace [^3H]-Prazosin or [^3H]-Clonidine from α1- and α2-ARs, respectively, on rat cerebral cortex. The inhibition constants (Ki) were calculated from the Cheng-Prusoff equation [24].
The affinity of the obtained compounds was evaluated by radioligand-binding assays (the ability to displace [^3H]-Prazosin and [^3H]-Clonidine from α1- and α2-ARs, respectively) on rat cerebral cortex. The brains are homogenized in 20 volumes of an ice-cold 50 mM Tris-HCl buffer (pH 7.6) and is centrifuged (MPW Med. Instruments, Warsaw, Poland) at 20,000 g for 20 min (0–4 °C). The cell pellet is resuspended in the Tris-HCl buffer and centrifuged again. Radioligand-binding assays are performed in plates (MultiScreen/Millipore, Burlington, MA, USA). The final incubation mixture (final volume 300 µL) consisted of 240 µL of the membrane suspension, 30 µL of [^3H]-Prazosin (0.2 nM) or [^3H]-Clonidine (2 nM) solution, and 30 µL of the buffer containing seven to eight concentrations (10^−11 to 10^−4 M) of the tested compounds. For measuring the unspecific binding, phentolamine, 10 µM (in the case of [^3H]-Prazosin) and clonidine, and 10 µM (in the case of [^3H]-Clonidine), were applied. The incubation was terminated by rapid filtration over glass fiber filters (Whatman GF/C, Sigma-Aldrich) using a vacuum manifold (Millipore). The filters were then washed twice with the assay buffer and placed in scintillation vials with a liquid-scintillation cocktail. Radioactivity was measured in a WALLAC 1409 DSA liquid-scintillation counter (BioSurplus, San Diego, CA, USA). All the assays were made in duplicate.

[4] = target: T3, human 5-HT7Rs (Homo sapiens, UniProt P34969); assay: Radioligand binding screening [3H]-LSD, membranes from CHO-K1 cells; conditions: for inhibition at 1 µM: 10^−6 M, read-out: 5-HT7 %inh @ 10^−6 M; for inhibition at 0.1 µM: 10^−7 M, read-out: 5-HT7 %inh @ 10^−7 M
T3 construct: expressed in transfected cells; host or cells: CHO-K1
T3 sequence (P34969 whole entry): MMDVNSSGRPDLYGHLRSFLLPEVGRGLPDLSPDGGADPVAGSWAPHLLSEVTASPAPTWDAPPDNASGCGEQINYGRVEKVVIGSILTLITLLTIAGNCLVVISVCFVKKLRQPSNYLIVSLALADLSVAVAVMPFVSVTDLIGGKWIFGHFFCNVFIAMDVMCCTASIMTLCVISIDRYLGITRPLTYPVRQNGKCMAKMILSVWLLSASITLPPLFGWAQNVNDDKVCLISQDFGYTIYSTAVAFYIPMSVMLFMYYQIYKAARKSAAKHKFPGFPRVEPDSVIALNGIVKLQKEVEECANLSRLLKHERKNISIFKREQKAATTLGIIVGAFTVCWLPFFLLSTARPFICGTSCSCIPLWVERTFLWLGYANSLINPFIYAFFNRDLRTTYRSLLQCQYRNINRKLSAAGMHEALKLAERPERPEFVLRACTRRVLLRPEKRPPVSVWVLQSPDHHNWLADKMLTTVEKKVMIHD
Method: Experiments were performed using membranes from CHO-K1 cells stably transfected with the human 5-HT1A and 5-HT7Rs according to the methods previously described.
Binding experiments were conducted in 96-well microplates in a total volume of 250 μL of appropriate buffers. The composition of the assay buffers was as follows: 50 mM Tris-HCl, 0.1 mM EDTA, 10 mM MgCl2. The reaction mix included 50 μL solution of test compound, 50 μL of radioligand, and 150 μL of diluted membranes. All assays were incubated for 1 h (5-HT1ARs) or 2 h (5-HT7Rs) at 37 °C. Radioactivity was counted in MicroBeta2 scintillation counter (PerkinElmer, Waltham, MA, USA). Nonspecific binding is defined with 10 µM of 5-HT and 10 µM of methiothepine in 5-HT1AR and 5-HT7R binding experiments, respectively. […]

α1A Profile [1] | IC50 [2] | α1B Profile [2] | IC50 [1] | EC50 ([1]; antagonist, in abstract) | functional preference over the α1B subtype ([1]; α1B vs α1A functional potency) | Ki [3] | inhibition at 1 µM [4] | inhibition at 0.1 µM [4] | Structure (SMILES)
ANT | 1.3 nM | ANT | – | – | – | – | – | – | CCOc1ccccc1OCCN[C@H](C)Cc1ccc(OC)c(S(N)(=O)=O)c1 [tamsulosin, reference compound]
ANT | 3.9 nM | ANT | 0.8 nM | 0.8 nM | 5 fold | 858 ± 69 nM | 93% | 57% | O=S(=O)(NCC1CCN(CCOc2ccccc2OCC(F)(F)F)CC1)c1cccc(Cl)c1F [Compound 9, 3-Chloro-2-fluoro-N-[(1-{2-[(2,2,2-trifluoroethoxy)phenoxy]ethyl}piperidin-4-yl)methyl]benzenesulfonamide]
ANT | 10.1 nM | ANT | 2.1 nM | – | – | 579 ± 20 nM | 94% | 61% | O=S(=O)(NCC1CCN(CCOc2ccccc2OCC(F)(F)F)CC1)c1cc(Cl)ccc1F [Compound 10, 5-Chloro-2-fluoro-N-[(1-{2-[(2,2,2-trifluoroethoxy)phenoxy]ethyl}piperidin-4-yl)methyl]benzenesulfonamide]
